The source of these data is patent US20230149355A1, “COMPOSITIONS AND METHODS FOR MODULATING TRP CHANNEL ACTIVITY” (priority 2020, published 2023).

The subject of test [1] is vagal sensory neurons. The test can be described thus: pERK immunofluorescence of vagal ganglia after microgavage. Format: in vivo, zebrafish. On the procedure: To quantify vagal activity by pERK staining, published protocol with slight modification (Randlett et al., 2015) was used. Zebrafish larvae were quickly collected by funneling through a 0.75 mm cell strainer and dropped into a 5 mL petri dish containing ice cold fix buffer (2.5% formalin+0.25% Triton 100). Larvae were fixed overnight at 4° C., then washed 3 times in PT (PBS+0.3% Triton 100), treated with 150 mM Tris-HCl (PH=9) for 15 mins at 70° C., washed with PT and digested with 0.05% trypsin-EDTA on ice for 45 mins. Following digestion, samples were then washed with PT and transferred into block solution [PT+1% bovine serum albumin (BSA, Fisher)+2% normal goat serum (NGS, Sigma)+1% dimethyl sulfoxide (DMSO)]. The primary antibodies [pERK (Cell signaling); tERK (Cell signaling); GFP (Aves Lab)] were diluted in block solution (1:150 for pERK; 1:150 for tERK and 1:500 for GFP) and samples were incubated in 100 μl of primary antibody overnight at 4° C. Following primary antibody incubation, samples were then washed with PT and incubated with secondary antibody overnight at 4° C. Samples were then washed with PBS, mounted in 1% LMA and imaged using a Zeiss 780 upright confocal microscope.
For delivering bacterial or chemicals specifically to the intestine, the established microgavage technique (Cocchiaro and Rawls, 2013) was adopted. […]

The next test concerns zebrafish EECs (Trpa1). The test can be described thus: In vivo EEC calcium, Tg(neurod1:Gcamp6f) zebrafish. The note with it: trpa1b-dependent. How it is done:
To record in vivo EEC activity using the Tg(neurod1:Gcamp6f) system, a published protocol with slight modification (Ye et al., 2019) was used. In brief, unanesthetized zebrafish larvae were gently mounted in 3% methylcellulose. Excess water was removed and zebrafish larvae were gently positioned with right side up. Zebrafish were then moved onto an upright Leica M205 FA fluorescence stereomicroscope equipped with a Leica DFC 365FX camera. The zebrafish larvae were allowed to recover for 2 mins before 100 μL of test agent was pipetted directly in front of the mouth region. Images were then recorded every 10 seconds. The data shown in FIG. 2O-R, depicting the EEC responses to E. tarda stimulation, were obtained by mounting unanesthetized zebrafish larvae in 1% low melting agarose. A window (5×5 mm) was cut to expose the head region of the zebrafish. 10 μL of E. tarda culture [˜10^9 Colony Forming Unit (CFU)] were delivered at the zebrafish mouth area. Images were recorded every 10 secs for 20 mins. Image processing and analysis were performed using FIJI software. Time-lapse fluorescence images were first aligned to correct for experimental drift using the plugin “align slices in stack.” Normalized correlation coefficient matching and bilinear interpolation methods for subpixel translation were used for aligning slices (Tseng et al., 2012). The plugin “rolling ball background subtraction” with the rolling ball radius=10 pixels was used to remove the large spatial variation of background intensities. The Gcamp6f fluorescence intensity in the intestinal region was then calculated for each time point. The ratio of maximum fluorescence (Fmax) and the initial fluorescence (F0) was used to measure EEC calcium responses.
For EEC Trpa1 activation using the Optovin platform, zebrafish larvae were treated with 10 μM Optovin overnight. Following Optovin treatment, unanesthetized zebrafish were mounted in 1% LMA and imaged under a 780 upright Zeiss confocal microscope using 20× water objective lenses. For all the experiments, the mid-intestine region was imaged (FIG. 10D). The intestinal epithelium was selected as the region of interest (ROI) (FIG. 10A). Serial images were obtained at 1 s/frame. A 405 nm pulse of light was applied to the ROI at 1 pulse/10 s. For some experiments (FIG. 7D-F, FIG. 10B-G), the images were obtained at 10 s/frame. When measuring Optovin effects on intestinal motility in ret−/−, sox10−/− or tph1b−/− zebrafish larvae, embryos were collected from heterozygous zebrafish. ret−/− zebrafish were identified by lack of ENS and deflated swim bladder (Knight et al., 2011), sox10−/− zebrafish were identified by lack of pigment (Rolig et al., 2017), and tph1b−/− zebrafish were identified by PCR-based genotyping (Tornini et al., 2017).
To determine whether Optovin-UV or ChR2 was sufficient to activate EECs, Tg(neurod1:Gcamp6f) zebrafish were used. […] The Gcamp6f signal was recorded with 488 nm laser intensity less than 0.5. The zebrafish intestinal motility is quantified through recorded image series of zebrafish intestine using the method similar as previously described (Ganz et al., 2018). […] When calculating the mean velocity, only the mean velocity magnitude was calculated, which therefore doesn't account for the movement direction. The MTrackJ FIJI plugin was used to quantify the mean velocity magnitude (Meijering et al., 2012).

For test [2], the system named is vagal sensory neurons. Put plainly: In vivo calcium imaging of vagal sensory ganglia after microgavage. On the set-up: species or system zebrafish. The note with it: WT; enteric microgavage ~8 nl, AITC 100 mM, indole 1 mM, IAld 1 mM. How it is done: For delivering bacterial or chemicals specifically to the intestine, the established microgavage technique (Cocchiaro and Rawls, 2013) was adopted. Zebrafish were anesthetized with 1 mg/mL α-Bungarotoxin (α-BTX) and the gavage procedure was performed as previously described using microinjection station (Cocchiaro and Rawls, 2013). For bacteria gavage experiments, 1 ml of overnight bacterial culture was harvested, pelleted, washed with PBS and resuspended in 100 ul PBS.˜8 nl was then delivered into the zebrafish intestine using microgavage. The gavaged zebrafish was then transferred into egg water and mounted in 1% LMA for imaging. For chemical gavage experiments, ˜8 nl of AITC (100 mM), indole (1 mM) and IAld (1 mM) was gavaged into the intestine.
Tg(neurod1:Gcamp6f); Tg(neurod1:TagRFP) zebrafish were used to record vagal sensory ganglia calcium activity in vivo. Zebrafish were anesthetized with 1 mg/mL α-Bungarotoxin (α-BTX) and gavaged with chemical compounds or bacteria as described (Naumann et al., 2016). Zebrafish larvae were mounted in 1% LMA and imaged under a Zeiss 780 upright confocal microscope. Z-stack images of the entire vagal ganglia were collected as serial images at 10 mins/frame and processed in FIJI. Individual vagal sensory neurons were identified and the Gcamp6f to TagRFP fluorescence ratios of individual vagal sensory neurons were calculated.

For a further test, the system named is zebrafish EECs. Put plainly: In vivo EEC activity, Tg(neurod1:CaMPARI) zebrafish. The source says:
CaMPARI undergoes permanent green-to-red photoconversion (PC) under 405 nm light when calcium is present. This permanent conversion records the calcium activity for all areas illuminated by PC-light. Red fluorescence intensity correlates with calcium activity during photoconversion (Fosque et al., 2015). In the Tg(neurod1:CaMPARI) zebrafish line, the CaMPARI (calcium-modulated photoactivatable ratiometric integrator) transgene is expressed under control of the −5 kb promoter cloned from the zebrafish neurod1 locus. CaMPARI mRNA is transcribed and the CaMPARI protein is expressed in cells that are able to activate the neurod1 promoter. There are multiple cell types in the zebrafish body that are sufficient to activate the neurod1 promoter, including all EECs in the intestine (Ye et al., 2019). CaMPARI protein is a calcium indicator protein that binds calcium and converts from green fluorescence to red fluorescence in the presence of UV light. This protein is engineered and described in detail in a previous publication (Fosque et al., 2015). This transgenic model was used to measure the level of intracellular calcium in EECs. […]

For another test, the system named is mouse duodenum. Put plainly: Amperometric measurement of 5-HT secretion, mouse small intestine. The note with it: 50 μM HC030031. The source says: (§1) These experiments using C57BL/6J mice were approved by the Flinders University Animal Welfare Committee (number 965-19) and human ileum tissue was collected from resected small and large intestine from patients that gave written informed consent under the approval of the Southern Adelaide Clinical Human Research Ethics Committee (number 50.07) as previous (Sun et al., 2019a). Mice were euthanized at 8 to 12 weeks by isoflurane overdose followed by cervical dislocation. The duodenum was removed and placed in Krebs solution oxygenated with 95% O2, 5% CO2. A midline incision was made along the duodenum to create a flat sheet, the section was pinned with the mucosal side up in an organ bath lined with Sylgard and containing oxygenated Krebs solution. Serotonin release was measured using amperometry. A carbon-fibre electrode (5-μm diameter, ProCFE; Dagan Corporation, Minneapolis, Minn.), was lowered above the mucosa and 400 mV potential was applied to the electrode causing oxidation of serotonin (Zelkas et al., 2015). […] The change in amplitude due to serotonin oxidation was recorded using an EPC-10 amplifier and Pulse software (HEKA Electronic, Lambrecht/Pfalz, Germany), and samples at 10 kHz and low-pass filtered at 1 kHz. Data was assessed as peak current during each treatment. Data was analyzed comparing all groups using one-way ANOVA with Tukey's post-hoc test. […]

The next test has as its system human ileum. Put plainly: Amperometric measurement of 5-HT secretion, human small intestine. Particulars: 50 μM HC030031.
Source text: as §1

Structures are written as SMILES.

With `C=CCN=C=S` [AITC, Allyl isothiocyanate], in the test with vagal sensory neurons [1] (EEC-ablated zebrafish), the “Vagal activation (pERK+) in the absence of EECs” value is reported as “abrogated”. Besides, the “Number of pERK+ vagal cells” value with vagal sensory neurons [1] (WT, microgavage, compared to PBS) is given as “increased”. The “Zebrafish EEC activation (Gcamp6f fluorescence)” value with zebrafish EECs (Trpa1) is “EEC activation”. Also, the “Gcamp6f fluorescence in a subset of vagal sensory neurons” value with vagal sensory neurons [2] is “significantly increased”.
As to `CC(C)c1ccc(NC(=O)Cn2cnc3c2c(=O)n(C)c(=O)n3C)cc1` [HC030031], the “Effect on E. tarda's ability to induce EEC activation” value with zebrafish EECs (WT fish, HC030031 280 μM, 2 hours before and during E. tarda stimulation) is “significantly inhibited”. In addition, in the test on mouse duodenum, the “Effect on indole-induced 5-HT secretion, mouse small intestine” value is “blocked”. Also, in the test with human ileum, the “Effect on indole-induced 5-HT secretion, human small intestine” value is “blocked”.
Consider `CCCCCCCCCCCC(=O)O` [laurate], for which the “Percentage of activated EECs (high red:green CaMPARI ratio)” value in the test on zebrafish EECs (linoleate, oleate, laurate 1.66 mM, butyrate 2 mM, glucose 500 mM, vs water) is reported as “significantly increased”.
